# Experimental data as given in publication PMC6222789, “CF3-Substituted Mollugin 2-(4-Morpholinyl)-ethyl ester as a Potential Anti-inflammatory Agent with Improved Aqueous Solubility and Metabolic Stability” (Molecules : A Journal of Synthetic Chemistry and Natural …, 2018).
# Like-named read-outs stand apart in the source and are kept apart here.
# Tests used:
# [1] = test system: TNF-α-induced adhesion of U937 monocytic cells to HT-29 cells; assay: TNF-α-induced colonic epithelial cell adhesion assay; type: cell-based, human
# Experimental: (§1) Synthesized mollugin derivatives were subjected to the colonic epithelial cell adhesion assay, which mimics the initial stage of colon inflammation. The inhibition of TNF-α-induced or IL-6-induced adhesion of U937 monocytic cells to HT-29 cells in 10 μM solution of synthesized molecules was measured, and the results are summarized in Table 1 and Table 2. Mesalazine (2), a commercially available medication for the treatment of IBD, and mollugin were chosen as assay positive controls.
# (§2) HT-29 human colonic epithelial cells and U937 human pre-monocytic cells were grown in RPMI 1640 medium supplemented with 10% FBS, 100 IU/mL penicillin, and 100 µg/mL streptomycin in a humidified incubator under 5% CO2/95% air.
# (§3) U937 monocytic cell adhesion to colonic epithelial cells was evaluated using human U937 pre-monocytic cells, which were prelabeled with 2′,7′-bis(2-carboxyethyl)-5(6)-carboxyfluorescein acetoxymethyl ester (BCECF/AM, 10 μg/mL) for 1 h at 37 °C. HT-29 cells cultured in 24-well plates were pretreated with test compound, 5-ASA, or tofacitinib for 1 h prior to incubation with TNF-α (10 ng/mL) and IL-6 (5 ng/mL) for an additional 3 h. Cells were then co-incubated with BCECF/AM-prelabeled U937 cells (1 × 10^6 cells/well) for 30 min at 37 °C. Non-adhering U937 cells were removed, and the HT-29 cells and adherent U937 cells were washed twice with PBS. Images were captured and processed with a Nikon ECLIPSE TE2000-U microscope and NIS-Elements F software (Nikon, Tokyo, Japan). For quantitative analysis, other sets of cells were lysed in 0.1% Triton X-100 in Tris (0.1 M), and the fluorescence was measured using a fluorescence-detecting microplate reader (Promega , Madison, WI, USA) at […]. Experiments were performed in triplicate and repeated at least three times independently.
# [2] = test system: IL-6-induced adhesion of U937 monocytic cells to HT-29 cells; assay: IL-6-induced colonic epithelial cell adhesion assay; type: cell-based, human
# Experimental: as §1, §2, §3
# [3] = Metabolic stability, human liver microsomes; type: in vitro ADME; conditions: 1 μM
# Experimental: (§4) Pooled human liver microsomes (150 donor) and dog, rat, mouse liver microsomes were obtained from BD Gentest Co. (Woburn, MA, USA). NADPH regeneration system was obtained from Promega. S-Mephenytoin, 4-hydroxymephenytoin, and 1’-hydroxymidazolam were purchased from Ultrafine Chemical Co. (Manchester, UK). All other chemicals and solvents were of the highest grade available. The metabolic stability assay was performed by incubation of human or selected animal liver microsomes (most often dog, rat and mouse), at 37 °C with a test compound at a final concentration of 1 μM, in the presence of 0.5 mg/mL microsomal protein and NADPH regeneration system, in a total volume of 100 μL of 100 mM phosphate buffer, pH 7.4. The incubation was started by the addition of NADPH regeneration system and terminated with 40 μL of ice-cold acetonitrile at 0 and 30 min. Precipitated proteins were removed by centrifugation at 10,000× g for 5 min at 4 °C. Aliquots of the supernatant were injected onto an LC-MS/MS system. Incubations terminated prior to the addition of NADPH regeneration system (time point 0 min) were used as standards, defined as 100%. Percent of the parent compound remaining was calculated by comparing peak area.
# [4] = Metabolic stability, dog liver microsomes; type: in vitro ADME; conditions: for Metabolic Stability (% Remain, 30 min) Dog: 1 μM
# Experimental: as §4
# [5] = Metabolic stability, rat liver microsomes; type: in vitro ADME; conditions: for Metabolic Stability (% Remain, 30 min) Rat: 1 μM
# Experimental: as §4
# [6] = Metabolic stability, mouse liver microsomes; type: in vitro ADME; conditions: for Metabolic Stability (% Remain, 30 min) Mouse: 1 μM
# Experimental: as §4
# [7] = Plasma stability, human plasma; type: in vitro ADME; conditions: 37 °C, 1 μM
# Experimental: (§5) The plasma stability assay was performed by incubation of human or rat plasma with a test compound in a final concentration of 1 μM for 120 min at 37 °C. The incubation was terminated by addition of 40 μL of ice-cold acetonitrile and vortexing for 5 min. The precipitated proteins were removed by centrifugation at 14,000× g for 5 min at 4 °C. Aliquots of the supernatant were injected onto a Shimadzu Nexera XR LC system. Percentages of the parent compound remaining were calculated by comparing peak areas using the Xcalibur software (version 1.6.1, Waltham, MA, USA).
# [8] = Plasma stability, rat plasma; type: in vitro ADME; conditions: for Plasma Stability (% Remain, 2 h) Rat: 37 °C, 1 μM
# Experimental: as §5
# [9] = target: T1, hERG channel (Homo sapiens, UniProt Q12809); assay: hERG channel binding assay (fluorescence polarization)
# T1 construct: purchased Invitrogen PV5365
# T1 sequence (Q12809 whole entry): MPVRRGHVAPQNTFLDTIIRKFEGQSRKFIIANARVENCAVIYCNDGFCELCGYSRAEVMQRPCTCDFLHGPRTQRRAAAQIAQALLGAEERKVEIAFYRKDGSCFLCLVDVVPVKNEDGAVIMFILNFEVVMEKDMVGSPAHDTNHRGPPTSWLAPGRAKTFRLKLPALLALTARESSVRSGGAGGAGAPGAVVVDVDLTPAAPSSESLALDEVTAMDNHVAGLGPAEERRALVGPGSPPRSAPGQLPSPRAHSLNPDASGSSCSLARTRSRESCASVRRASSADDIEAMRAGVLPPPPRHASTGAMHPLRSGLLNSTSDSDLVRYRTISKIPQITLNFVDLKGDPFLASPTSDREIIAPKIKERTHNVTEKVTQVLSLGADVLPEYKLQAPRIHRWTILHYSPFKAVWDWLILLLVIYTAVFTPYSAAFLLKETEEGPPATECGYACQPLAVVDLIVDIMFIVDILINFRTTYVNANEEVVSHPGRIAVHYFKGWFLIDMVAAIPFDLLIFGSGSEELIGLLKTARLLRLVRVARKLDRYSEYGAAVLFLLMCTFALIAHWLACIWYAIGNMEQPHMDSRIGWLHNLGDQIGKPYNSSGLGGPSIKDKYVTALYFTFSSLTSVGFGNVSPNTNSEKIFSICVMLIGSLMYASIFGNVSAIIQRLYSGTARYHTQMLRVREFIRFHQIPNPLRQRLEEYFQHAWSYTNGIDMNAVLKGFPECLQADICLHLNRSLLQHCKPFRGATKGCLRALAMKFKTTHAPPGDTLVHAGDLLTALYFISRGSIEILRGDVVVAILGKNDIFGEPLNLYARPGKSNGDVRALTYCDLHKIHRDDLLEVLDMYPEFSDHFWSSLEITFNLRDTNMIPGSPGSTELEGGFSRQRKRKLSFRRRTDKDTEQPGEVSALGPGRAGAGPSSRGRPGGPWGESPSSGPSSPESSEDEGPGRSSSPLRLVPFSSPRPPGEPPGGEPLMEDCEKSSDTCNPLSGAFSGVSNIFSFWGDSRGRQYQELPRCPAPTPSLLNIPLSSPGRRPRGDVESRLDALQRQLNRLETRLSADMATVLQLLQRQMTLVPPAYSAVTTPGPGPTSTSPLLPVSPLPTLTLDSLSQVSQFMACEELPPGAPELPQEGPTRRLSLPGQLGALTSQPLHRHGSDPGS
# Experimental: hERG channel binding assay was performed using Invitrogen’s hERG Fluorescence Polarization Assay kit (PV5365) with Synergy Neo plate reader (BioTek, Winooski, VT, USA). The binding assay was carried out according to the kit manufacturer’s instructions.
# [10] = test system: TNF-α-induced adhesion of U937 monocytic cells to HT-29 cells; design: method as in PMID 19765578; conditions: cell adhesion assay and IBD animal model; cited from earlier work
# [11] = test system: Serum Amyloid A (SAA); assay: Serum SAA level in DSS-induced colitis mouse model (ELISA); type: in vivo; conditions: 4% DSS-induced mouse model; mesalazine 20 mM; ELISA
# Experimental: The level of Serum Amyloid A (SAA) was measured using a mouse SAA ELISA kit according to the manufacturer’s instructions (E-90SAA, Immunology Consultants Laboratory, Inc., Portland, OR, USA). All samples were assayed in duplicate. The concentrations of SAA were determined by comparison to serial dilutions of purified SAA calibrator.
# Figure 2 Analysis of mouse serum amyloid A (SAA) level. Effect of 6d on the level of SAA in the 4% dextran sulfate sodium (DSS)-induced mouse model. The level of SAA in serum was determined by ELISA. The control mice received water + vehicle (water), and the treated groups received 4% DSS + vehicle or DSS with mesalazine (20 mM), 6d (10 μM), or 15c (10 μM). TEXT PRINTED IN THE PICTURE: vehecle: mSS assay (ng/ml): 252.08 | vehecle: mSS assay (ng/ml): 732.93 (4% DSS) | 2: mSS assay (ng/ml): 788.86 (4% DSS) | 6d: mSS assay (ng/ml): 295.77 (4% DSS) | 15c: mSS assay (ng/ml): 300.95 (4% DSS)
# [12] = Homo sapiens, Epithelial cell, U937 adhesion to HT-29 cells, TNF-α-induced
# [13] = Homo sapiens, Epithelial cell, U937 adhesion to HT-29 cells, IL-6-induced
# [14] = human, Invitrogen hERG Fluorescence Polarization Assay kit (PV5365)
SMILES,"inhibition at 10 µM [1, 12]","inhibition at 10 µM [2, 13]","Metabolic Stability (% Remain, 30 min) Human [3]","Metabolic Stability (% Remain, 30 min) Dog [4]","Metabolic Stability (% Remain, 30 min) Rat [5]","Metabolic Stability (% Remain, 30 min) Mouse [6]","Plasma Stability (% Remain, 2 h) Human [7]","Plasma Stability (% Remain, 2 h) Rat [8]",IC50 [9],other results
"CN1CCC[C@@H]1COC(=O)c1c2c(c3ccccc3c1O)OC(C)(C)C=C2 [6f, (R)-(1-Methylpyrrolidin-2-yl)methyl 6-hydroxy-2,2-dimethyl-2H-benzo[h]chromene-5-carboxylate]",48.3 ± 6.2%,38.2 ± 5.1%,58 % Remain,12 % Remain,13 % Remain,11 % Remain,100 % Remain,99 % Remain,> 10 µM,–
"CN1CCN(CCOC(=O)c2c3c(c4ccccc4c2O)OC(C)(C)C=C3)CC1 [6h, 2-(4-Methylpiperazin-1-yl)ethyl 6-hydroxy-2,2-dimethyl-2H-benzo[h]chromene-5-carboxylate]",42.2 ± 6.4%,18.2 ± 3.1%,76 % Remain,11 % Remain,23 % Remain,9 % Remain,79 % Remain,89 % Remain,3.3 µM,"inhibition of TNF-α-induced monocyte-epithelial adhesion ([1]; 10 μM): good % inhibition; inhibition of IL-6-induced monocyte-epithelial adhesion ([2]; 10 μM): reduced % inhibition; IC50 [9, 14]: 3 µM"
"CN1CCN(CCCOC(=O)c2c3c(c4ccccc4c2O)OC(C)(C)C=C3)CC1 [6i, 3-(4-Methylpiperazin-1-yl)propyl 6-hydroxy-2,2-dimethyl-2H-benzo[h]chromene-5-carboxylate]",58.5 ± 6.4%,27.6 ± 4.2%,–,–,–,–,–,–,5.3 µM,"IC50 [9, 14]: 5 µM"
"CC1(C)C=Cc2c(C(=O)OCCCN3CCOCC3)c(O)c3ccccc3c2O1 [6e, 3-Morpholinopropyl 6-hydroxy-2,2-dimethyl-2H-benzo[h]chromene-5-carboxylate]",40.1 ± 3.5%,26.6 ± 5.1%,36 % Remain,42 % Remain,16 % Remain,24 % Remain,100 % Remain,94 % Remain,> 10 µM,–
"COC(=O)c1c2c(c3ccccc3c1O)OC(C)(C)C=C2 [compound 1, mollugin]",37.8 ± 5.7%,40.8 ± 6.2%,33 % Remain,33 % Remain,19 % Remain,40 % Remain,92 % Remain,16 % Remain,> 10 µM,metabolic stability with dog liver microsomes [4]: generally unstable; metabolic stability with rat liver microsomes [5]: generally unstable; metabolic stability with mouse liver microsomes [6]: generally unstable; stability in rat plasma [8]: unstable; improved efficacy over mesalazine [10]: at least 1000 fold
"CN1CCC(OC(=O)c2c3c(c4ccccc4c2O)OC(C)(C)C=C3)CC1 [6g, 1-Methylpiperidin-4-yl 6-hydroxy-2,2-dimethyl-2H-benzo[h]chromene-5-carboxylate]",54.8 ± 5.2%,38.9 ± 5%,78 % Remain,36 % Remain,23 % Remain,14 % Remain,100 % Remain,100 % Remain,> 10 µM,–
"Nc1ccc(O)c(C(=O)O)c1 [compound 2, 5-Aminosalicylic acid, reference compound]",–,–,–,–,–,–,–,–,–,"inhibition at 20000 µM ([1]; Homo sapiens, Epithelial cell, at 20 mM, U937 adhesion to HT-29 cells, TNF-α-induced): ~30%; % Inhibition TNF-α ([1]; at 20 mM, U937 adhesion to HT-29 cells, TNF-α-induced, listed as 2 (5-ASA)): 28.8 ± 7.7 (at 20 mM) %; inhibition at 20000 µM ([2]; Homo sapiens, Epithelial cell, at 20 mM, U937 adhesion to HT-29 cells, IL-6-induced): ~30%; % Inhibition IL-6 ([2]; at 20 mM, U937 adhesion to HT-29 cells, IL-6-induced, listed as 2 (5-ASA)): 32.6 ± 7.3 (at 20 mM) %; serum SAA level (mSS assay) [11]: 788.86 ng/mL"
